Reference: patent publication US4124598A, “Psoralens” (Hoffmann-La Roche Inc., priority 1976, dated 1978)

Tests used:
Calf thymus DNA = experiment: Equilibrium dialysis, non-covalent binding to DNA; settings: for Kd: 0.01 M Tris, non-covalent binding; for (PS)/(S) for DNA in Saturated Solution: occupied/unoccupied binding sites
Method: (§1) In order to establish the dissociation constants from DNA and RNA, the non-covalent binding was ascertained. Non-covalent binding determines the presence of the psoralen within the nucleic acid helix. Its presence is determined in the absence of any radiant energy. As noted before, radiant energy is necessary to activate the psoralen covalent binding reaction with nucleic acid base pairs.
(§2) To determine the non-covalent binding, Calf thymus DNA (Sigma Type I) was dissolved in a 0.01 M Tris 0.001 M EDTA pH 8.5 buffer at a concentration of 25 ug/ml. A quantity of this DNA solution was placed in a dialysis bag (pretreated by boiling in NaHCO3), and the various tritiated derivatives were added inside the bag in half the cases and outside the bag in the other half. The molar ratio of psoralen molecules to base pairs was approximately 1:25. The bags were placed in vials filled with 18 ml of buffer and put on a shaker for 48-60 hours. After this period, radioactivity was determined both inside and outside the bags and the optical density of the DNA solution measured. From this information, and the specific activity of each derivative, the amount of drug non-covalently bound to the DNA was determined. Binding of the derivatives to Drosophila melanogaster ribosomal RNA was measured in exactly the same manner.
(§3) The units of the dissociation constants are moles/liter. Solubilities and molar extinction coefficients (ε) were obtained in pure water, the equilibrium constants (KD) in 0.01 M Tris.

[1] = molecular target: Drosophila melanogaster ribosomal RNA; experiment: Equilibrium dialysis, non-covalent binding to RNA; settings: for Kd: 0.01 M Tris, non-covalent binding; for (PS)/(S) for RNA in Saturated Solution: occupied/unoccupied binding sites
Method: as §1, §2, §3

Solubility in pure water = type: physicochemical; settings: pure water
Description: In order to study solubilities and dissociation constants, it is most convenient to prepare tritiated derivatives of the psoralen compounds. Thus, well-known radiation counting methods may be utilized to monitor the presence of the psoralens in solutions, or in nucleic acids.
as §3

[2] = Molar extinction coefficient in pure water; type: physicochemical
Description: as §3

DNA (calf thymus) [3] = experiment: Low intensity photoaddition (covalent binding) to DNA; settings: for A (footnote 1, shown as drawing 9) / B = percent of added psoralen covalently bound: 25 μg/ml DNA, psoralen:base pair 1:3
Method: (§4) The covalent binding of the psoralens to DNA and RNA was studied. To achieve covalent binding, it is necessary to supply radiant energy (light) to the binding sites. These studies were carried out as follows:
(§5) The DNA and RNA used in the covalent binding studies have been described previously. Samples of each nucleic acid were prepared at a concentration of 25 ug/ml in 0.01 m Tris 0.001 M EDTA buffer. The radioactive-psoralen derivatives were added in a ratio of one psoralen for every three base pairs. The irradiation was carried out in one of the two following devices.
The low intensity irradiations were performed with a modified slide projector which was fitted with a 400 watt General Electric mercury vapor lamp (H 400 A 33-1/T16). The image of the arc was focused on the same cell, jacketed by a cobaltous nitrate solution which was also used for the high intensity irradiations. The light intensity delivered to the sample in this device was 4 to 6 mw/cm^2. The high intensity irradiations were carried out in a device containing two of the sam 400 watt General Electric mercury vapor lamps which were mounted on either side of a double walled sample chamber at a distance between centers of 4.0 cm. The chamber was cooled to 10° C. by continuous circulation of a temperature regulated solution of cobaltous nitrate (40% w/w). The cobalt solution served as an ultraviolet filter which allowed a maximum transmittance of 365 nm light and a window from approximately 340-380 nm. The intensity of the light at the surface of the inner sample chamber was approximately 100 mw/cm^2. The nucleic acid-psoralen mixture was placed in the inner chamber where it was continuously stirred throughout the irradiation. […] Each aliquot was then extracted twice with chloroform/iso-amyl alcohol (24:1) to remove unreacted psoralen followed by exhaustive dialysis against 0.01 M Tris, 0.001 M EDTA buffer. The successful extraction of unbound psoralen by the chloroform-isoamyl alcohol required the aqueous phase to be at least 0.15 M in NaCl. Finally, the optical density of the nucleic-acid psoralen mixture was taken and its radioactivity determined, thus giving the amount of derivative covalently bound to the DNA or RNA. Taking samples, at spaced time intervals also permitted an assessment of the kinetics of the covalent binding.

DNA (calf thymus) [4] = experiment: High intensity photoaddition (covalent binding) to DNA; settings: 25 μg/ml DNA, psoralen:base pair 1:3
Method: as §4, §5
(§6) The low intensity irradiations were performed with a modified slide projector which was fitted with a 400 watt General Electric mercury vapor lamp (H 400 A 33-1/T16). The image of the arc was focused on the same cell, jacketed by a cobaltous nitrate solution which was also used for the high intensity irradiations. The light intensity delivered to the sample in this device was 4 to 6 mw/cm^2. The high intensity irradiations were carried out in a device containing two of the sam 400 watt General Electric mercury vapor lamps which were mounted on either side of a double walled sample chamber at a distance between centers of 4.0 cm. The chamber was cooled to 10° C. by continuous circulation of a temperature regulated solution of cobaltous nitrate (40% w/w). The cobalt solution served as an ultraviolet filter which allowed a maximum transmittance of 365 nm light and a window from approximately 340-380 nm. The intensity of the light at the surface of the inner sample chamber was approximately 100 mw/cm^2. The nucleic acid-psoralen mixture was placed in the inner chamber where it was continuously stirred throughout the irradiation. Aliquots of each solution (derivative plus nucleic acid) were taken at 20, 40 and 60 minutes. Each aliquot was then extracted twice with chloroform/iso-amyl alcohol (24:1) to remove unreacted psoralen followed by exhaustive dialysis against 0.01 M Tris, 0.001 M EDTA buffer. The successful extraction of unbound psoralen by the chloroform-isoamyl alcohol required the aqueous phase to be at least 0.15 M in NaCl. Finally, the optical density of the nucleic-acid psoralen mixture was taken and its radioactivity determined, thus giving the amount of derivative covalently bound to the DNA or RNA. Taking samples, at spaced time intervals also permitted an assessment of the kinetics of the covalent binding.

[5] = test system: RNA (Drosophila melanogaster ribosomal RNA); experiment: High intensity photoaddition (covalent binding) to RNA; settings: 25 μg/ml RNA, psoralen:base pair 1:3
Method: as §4, §5, §6

[6] = test system: vesicular stomatitis virus; type: cell-based, Vesicular stomatitis virus Indiana strain
DNA = experiment: Reactivity with DNA (general statement); type: binding, calf
Method: as §4, §5
as §6, with “Each aliquot was then extracted twice with chloroform/iso-amyl alcohol (24:1) to remove unreacted psoralen followed by exhaustive dialysis against 0.01 M Tris, 0.001 M EDTA buffer. The successful extraction of unbound psoralen by the chloroform-isoamyl alcohol required the aqueous phase to be at least 0.15 M in NaCl.” left out, “Taking samples, at spaced time intervals also permitted an assessment of the kinetics of the covalent binding.” left out

| SMILES | Kd (Calf thymus DNA) [µM] | (PS)/(S) for DNA in Saturated Solution (Calf thymus DNA; saturated solution) | Kd [1] [µM] | (PS)/(S) for RNA in Saturated Solution [1] | solubility (Solubility in pure water) [µg/mL] | solubility (Solubility in pure water; molar) [µM] | Extinction coefficient ε, 250 nm [2] [L/mol/cm] | A (footnote 1, shown as drawing 10) (DNA (calf thymus) [4]; 20 min irradiation) | B = percent of added psoralen covalently bound (DNA (calf thymus) [4]; 20 min irradiation) [%] | A (footnote 1, shown as drawing 10) (DNA (calf thymus) [4]; 40 min irradiation) | B = percent of added psoralen covalently bound (DNA (calf thymus) [4]; 40 min irradiation) [%] | A (footnote 1, shown as drawing 10) (DNA (calf thymus) [4]; 60 min irradiation) | B = percent of added psoralen covalently bound (DNA (calf thymus) [4]; 60 min irradiation) [%] | A (footnote 1, shown as drawing 11) ([5]; 20 min irradiation) | B = percent of added psoralen covalently bound ([5]; 20 min irradiation) [%] | A (footnote 1, shown as drawing 11) ([5]; 40 min irradiation) | B = percent of added psoralen covalently bound ([5]; 40 min irradiation) [%] | A (footnote 1, shown as drawing 11) ([5]; 60 min irradiation) | B = percent of added psoralen covalently bound ([5]; 60 min irradiation) [%] | further results |
| --- | --- | --- | --- | --- | --- | --- | --- | --- | --- | --- | --- | --- | --- | --- | --- | --- | --- | --- | --- | --- |
| Cc1cc2cc3c(C)cc(=O)oc3c(C)c2o1 [trioxsalen, 4,5',8-trimethyl psoralen, reference compound] | 56 | 0.046 | 100 | 0.026 | 0.6 | 2.6 | 18000 | 11.6 | 25.9 | 10.6 | 28.3 | 12.2 | 24.6 | 23.1 | 13.0 | 21.6 | 13.9 | 20.6 | 14.8 | one psoralen per n base pairs at equilibrium (best achievable) (Calf thymus DNA; saturated solution): ~20 base pairs; times stronger binding to DNA than 4'-hydroxymethyl trioxsalen (Calf thymus DNA; vs 4'-hydroxymethyl trioxsalen (trioxsalen binding)): 5 times; times stronger binding to DNA than 4'-methoxymethyl trioxsalen (Calf thymus DNA; vs 4'-methoxymethyl trioxsalen): 2 times; rate of reaction with DNA / initial rate of photochemical binding (DNA (calf thymus) [3]): greater initial rate of photochemical binding than 4'-hydroxymethyl trioxsalen; A (footnote 1, shown as drawing 9) (DNA (calf thymus) [3]; 5 min irradiation): 19.7; B = percent of added psoralen covalently bound (DNA (calf thymus) [3]; 5 min irradiation): 15.5%; A (footnote 1, shown as drawing 9) (DNA (calf thymus) [3]; 10 min irradiation): 15.5; B = percent of added psoralen covalently bound (DNA (calf thymus) [3]; 10 min irradiation): 19.7%; A (footnote 1, shown as drawing 9) (DNA (calf thymus) [3]; 30 min irradiation): 13.7; B = percent of added psoralen covalently bound (DNA (calf thymus) [3]; 30 min irradiation): 22.1%; A (footnote 1, shown as drawing 9) (DNA (calf thymus) [3]; 60 min irradiation): 12.8; B = percent of added psoralen covalently bound (DNA (calf thymus) [3]; 60 min irradiation): 23.6%; A (footnote 1, shown as drawing 9) (DNA (calf thymus) [3]; 90 min irradiation): 10.6; B = percent of added psoralen covalently bound (DNA (calf thymus) [3]; 90 min irradiation): 28.5%; moles of psoralen bound per mole of base pairs (DNA (calf thymus) [3]; 90 minutes irradiation): 0.09 moles per mole of base pairs; effect of increasing concentration on ability to inactivate the virus ([6]; FIG. 1, from 10 μg/ml to 30 μg/ml): no effect on its ability to inactivate the virus |
| COCc1c(C)oc2c(C)c3oc(=O)cc(C)c3cc12 [4'-methoxymethyl-4,5',8-trimethyl psoralen] | 94 | 0.39 | 1000 | 0.037 | 10 | 37 | 21000 | 14.1 | 21.3 | 14.3 | 21.0 | 13.8 | 21.7 | 264.2 | 1.2 | 216.8 | 1.4 | 183.4 | 1.6 | DNA site saturation, one psoralen per base pairs (Calf thymus DNA; saturated solution, expected from KD and solubility): one psoralen per three base pairs; (PS)/(S) for DNA in Saturated Solution (Calf thymus DNA; saturated solution, listed as 4'-methoxymethyl trioxsalen): 0.5; times more strongly binding to DNA than methoxsalen (Calf thymus DNA; vs methoxsalen): 10 times; effectiveness in inactivation of vesicular stomatitis virus vs 4,5',8-trimethyl psoralen ([6]; high dose rates, e.g., 30 μg/ml): nearly one thousand times more effective; reactivity with DNA (DNA): excellent reactivity with DNA |
